Laboratory results reported in patent US20040121307A1, “Early detection of cellular differentiation using optophoresis” (Genoptix, Inc, priority 2002, published 2004).
Structures can show the parent of a compound that is named as a salt. Where two headings read alike, the source gives them in different places.

What was measured:
[1] = system: U937 cells; assay: Experiment 3: PMA inhibition by bisindolymaleimide, escape velocity; assay type: cell-based; details: for average escape velocity / escape velocity, Ave.: four hours; for escape velocity, Ave.: no PMA
Excerpt: The objective of this experiment was to test the effect of bisindolymaleimide on cells exposed to PMA. Bisindolymaleimide is a Protein Kinase C inhibitor and should block the effect of PMA on U937 cells and their escape velocities. As shown in this and prior experiments, exposure of U937 cells to PMA results in an increase in the escape velocity of the cells. Therefore, it is anticipated that addition of bisindolymaleimide will reduce or eliminate the increase in escape velocity caused by PMA. This has in fact been observed in the data shown below.
Bisindolymaleimide was tested at two concentrations: 200 ng/ml and 50 ng/ml. Samples not treated with bisindolymaleimide received an equivalent amount of the carrier, MeOH, as a control. […] The concentration of PMA tested was 10 ng/ml. Samples not receiving PMA received DMSO.
Once the flasks were prepared, they were incubated at 37° C. 5% CO2 for four hours. At the four hour timepoint, 300 μl of cells were removed from each flask and pelleted at 5000 rpm for 5 minutes. The cells were then resuspended in 6 ml PBS/1% BSA and 60 μl trypan blue.

[2] = system: HL-60 cells; assay: Cellular differentiation of HL-60, fast scan time course; assay type: cell-based; details: 1% DMSO
Protocol: (§1) Fast scan analysis was also performed on HL-60 cells that were treated with PMA and DMSO. A time course evaluation of PMA treated HL-60 cells was performed with fast scan data taken at 16 hours, 24 hours, 40 hours, and 72 hours post-treatment with 400 ng/ml PMA. A control sample of HL-60 cells was also tested using EtOH as the vehicle for purposes of comparing the differentiated cells with the undifferentiated HL-60 cells. The PMA-treated and control cells were harvested and trypsinized. The samples were then resuspended in PBS/1% BSA. A set of samples was also obtained and left as pellets at 4° C. for subsequent FACS analysis.
A time course evaluation of DMSO treated HL-60 cells was performed with fast scan data taken at 16 hours, 24 hours, 40 hours, and 70 hours post-treatment with 1% DMSO. A control sample of HL-60 cells was also tested for purposes of comparing the differentiated cells with the undifferentiated HL-60 cells. The DMSO-treated and control cells were then harvested and resuspended in PBS/1% BSA. A set of samples was also obtained and left as pellets at 4° C. for subsequent FACS analysis.

[3] = system: CD11b expression in HL-60 cells; assay: FACS CD11b expression profile; assay type: cell-based; details: 1% DMSO
Protocol: as §1
FIG. 145 illustrates a histogram of the travel distance of the control cells as well as the PMA-treated cells at 16 hours, 24 hours, 40 hours, and 72 hours post-treatment. FIG. 146 illustrates the mean travel distances of the control cells as well as the PMA-treated cells at 16 hours, 24 hours, 40 hours, and 72 hours post-treatment. FIG. 147 illustrates the FACS CD11b expression profile in PMA-treated HL-60 cells as well as the control. CD11b is a known marker of cellular differentiation and is expressed on the surface of differentiating cells. […] The data illustrate that Optophoretic analysis can be used as an assay for the detection and quantification of cellular differentiation. […]

[4] = system: Erythromycin-resistant strain; assay: Bacterial screen for drug sensitivity, escape velocity, resistant strain; assay type: cell-based, Staphylococcus aureus; details: 5 μg/ml Erythromycin (FIG. 80)
Protocol: (§2) In this experiment, escape velocity was measured over time in wild type Staphylococcus aureus and an Erythromycin-resistant strain. 5 μg/ml of Erythromycin was applied to both the wild type Staphylococcus aureus and an Erythromycin-resistant strain. Escape velocity measurements were taken at time zero, 30 minutes post-treatment, and 3 hours post-treatment. […] In this experiment, however, escape velocity measurements were made at time zero, 30 minutes post-treatment, and 1 hour post-treatment, and 2 hours post-treatment. A reduction in escape velocity of the Erythromycin-sensitive strain can be seen at 1 hour post-treatment.

[5] = system: wild type Staphylococcus aureus; assay: Bacterial screen for drug sensitivity, escape velocity, sensitive strain; assay type: cell-based
Protocol: as §2

[6] = system: K562, BV-173, EM-3, and U-937 cells; assay: Experiment 8: effect of Gleevec, escape velocity; assay type: cell-based; details: 72 hours after exposure, all four cell types
Excerpt: The U-937 cells have no copies of the gene. The K-562 line of cells has, on average, one copy of the gene per cell. The BV-173line of cells has, on average, three copies of the gene per cell. The EM-3 cell line has, on average, five copies of the gene per cell. […] FIG. 44 illustrates the measured escape velocities (average) for each of the four cell types. […] In addition, the decrease in escape velocity for the Gleevec-treated cells was more pronounced in those cell lines that had higher copy numbers of the Bcr-Abl gene.

[7] = system: EM-3 cells; assay: Experiments 9 and 9.1: Gleevec and other kinase inhibitors, fast scan; assay type: cell-based; details: for Mean Distance: 1 μM, 48 hours of exposure
Protocol: A second group of cells were treated with 1 μM Src-Family Protein Tyrosine Kinase Inhibitor Set, obtained from CALBIOCHEM (Cat. No. 567816). The Src Set contained four inhibitors, namely, Genistein, Herbimycin A, Streptomyces sp., PP2, and PP3. A third group of cells were treated with 1 μM Staurosporine. A fourth group of cells were treated with 1 μM TK Inhibitor Set, also obtained from CALBIOCHEM (Cat. No. 657021). The TK Inhibitor Set contained five inhibitors, Genistein, PP2, AG490, AG1296, and AG1478. […] Measurements were taken after 48 hours of exposure.
Fast scan analysis was performed after 48 hours of incubation.

[8] = system: Jurkat cells; assay: Experiment 5: TNF-α effect, escape velocity; assay type: cell-based; details: TNF inhibitor added with TNF (FIG. 36)
Protocol: After 48 hours of incubation, the cells were removed and centrifuged for 5 minutes at 5,000 rpm. Then the cells were resuspended in PBS/1% BSA and trypan blue. A higher power setting, 140 mW instead of 100 mW, was used for this experiment. The escape velocities were measured as follows:
In this experiment Leflunomide and Silymarin were added with TNF to see if the anticipated increase in escape velocity measurements could be counteracted by the presence of the TNF inhibitors.

[9] = system: U937 cells
Protocol: This experiment is designed to compare the effects of two concentrations of sodium salicylate on U937 cells. Sodium salicylate was prepared at two concentrations: 20 mM and 5 mM. The escape velocities of the cells was tested at 5 hours, 24 hours and 47 hours. At each timepoint, 30 μl of sample was pelleted at 5,000 rpm for 5 minutes and then resuspended in PBS/1% BSA and trypan blue.

[10] = system: Chang liver cells; assay: Experiment 10: toxicity of ketoconazole, escape velocity; assay type: cell-based, human; details: 1 μm ketoconazole, 1.5 hours of treatment
Protocol: (§3) This experiment is designed to test the effect of ketoconazole on human liver cells. Ketoconazole induces toxicity in liver cells. The sample cells were Chang liver cells. The concentration of ketoconazole used to treat the cells was 1 μm. Escape velocity and fast scan protocols were applied to determine the impact, if any, of ketoconazole treatment. […] Consequently, Optophoresis was able to detect an effect on the escape velocity of treated cells within 1.5 hours of exposure to ketoconazole. FIGS. 44-45 show the fast scan results of ketoconazole-treated Chang liver cells. […] The ketoconazole-treated cells generally traveled a smaller distance as compared to the non-treated control.

[11] = system: Chang liver cells; assay type: cell-based; details: human, 1 μm
Protocol: as §3

[12] = system: U937 cells; remark: listed apart in the source
Protocol: Both groups of cells were incubated with compound in 0.1% DMSO (or simply 0.1% DMSO in the case of the control) for four hours. At the end of the incubation period, the cells were centrifuged down for 3-5 minutes at 5000 rpm in a Model V microcentrifuge (VWR scientific). The supernatant was then aspirated and the pellet resuspended in 1 ml PBS/1% BSA buffer plus 1:10 trypan blue. Escape velocity measurements were then taken of the cells.
The different groups of cells were incubated for various time periods (3, 6, 9, and 24 hours) and escape velocity measurements were made. At the end of the incubation period, the cells were centrifuged down for five minutes at 5000 rpm. The supernatant was then removed and the pellet resuspended in 1 ml PBS/1% BSA buffer plus 1:10 trypan blue. The cells were then loaded onto a cover slip containing agarose that was spin-coated onto the surface thereof.
The cells were incubated for four hours and prepped for testing in accordance with the procedures described above in the prior experiments. The cells were then loaded onto a cover slip containing agarose that was spin-coated onto the surface thereof. Escape velocity measurements were then taken using a 100 mW laser with a diameter of 21.5 pixels.
The groups of cells were incubated (or simply 0.1% DMSO in the case of the control) for six hours. At the end of the incubation period, the cells were centrifuged down for five minutes at 5000 rpm. The supernatant was then removed and the pellet resuspended in 1 ml PBS/1% BSA buffer plus 1:10 trypan blue. The cells were then loaded onto a cover slip containing agarose that was spin-coated onto the surface thereof. Escape velocity measurements were then taken using a 100 mW laser with a diameter of 28 pixels. Escape velocity measurements were then taken of the cells.
The groups of cells were incubated for six hours with compound (or simply DMSO in the case of the control). At the end of the incubation period, the cells were centrifuged down for five minutes at 5000 rpm. […]

[13] = system: CCRF-CEM cells; assay: Experiment 14, fifth experiment: topotecan on sensitive cell line, escape velocity; assay type: cell-based; details: 10 μM topotecan, 6 hours
Protocol: In a fifth experiment, two different cell lines obtained from ATCC which have varying degrees of sensitivity to topoisomerase I inhibitors such as camptothecin and topotecan were subject to Optophoretic analysis. A group of cells from a parental cell line CCRF-CEM that is sensitive to camptothecin and topotecan were incubated for 6 hours with 10 μM topotecan. Another group of cells from the cell line CEM/C2, which are 970-fold less sensitive to camptothecin and topotecan, were also incubated for 6 hours with 10 μM topotecan. Control cells from both the CCRF-CEM and CEM/C2 cell lines were also tested. The cells were incubated for six hours and prepared for testing in accordance with the procedures described above in the prior experiments. The cells were then loaded onto a cover slip containing agarose that was spin-coated onto the surface thereof. Escape velocity measurements were then taken using a 100 mW laser with a diameter of 28 pixels. […] Optophoretic analysis was thus able to score cross-resistance of camptothecin-resistant cell lines to topotecan, an analog of camptothecin.

[14] = system: CEM/C2 cell line; details: cell lines obtained from ATCC; cited from earlier work

## CN(C)CCCn1cc(C2=C(c3c[nH]c4ccccc34)C(=O)NC2=O)c2ccccc21 [Bisindolymalemide]
[1]; 50 ng/ml bisindolymaleimide + 10 ng/ml PMA
  average escape velocity: 15.1 μm/sec
[1]; 50 ng/ml bisindolymaleimide
  escape velocity, Ave.: 13.9
[1]; 200 ng/ml BIMI for 30 minutes followed by 10 ng/ml PMA (FIG. 33)
  effect on the optophoretic shift in escape velocity caused by PMA: blocked the optophoretic shift in escape velocity
[1]; 200 ng/ml bisindolymaleimide + 10 ng/ml PMA
  average escape velocity: 14.5 μm/sec
[1]; 200 ng/ml bisindolymaleimide
  escape velocity, Ave.: 14.0

## C[S+](C)[O-] [DMSO, dimethylsulfoxide]
[2]; 16 to 72 hours (FIG. 149)
  course of mean travel distance: mean travel distance progressively decreased as time elapsed
[2]; fast scan
  time after treatment at which a noticeable decrease in mean travel distance was detected: ≤ 16 h
[3]
  time after treatment at which FACS detected a change in CD11b expression levels: 40 h

## CC[C@H]1OC(=O)[C@H](C)[C@@H](O[C@H]2C[C@@](C)(OC)[C@@H](O)[C@H](C)O2)[C@H](C)[C@@H](O[C@@H]2O[C@H](C)C[C@H](N(C)C)[C@H]2O)[C@](C)(O)C[C@@H](C)C(=O)[C@H](C)[C@@H](O)[C@]1(C)O [Erythromycin]
[4]
  escape velocity after treatment: same escape velocity as the untreated Erythromycin-sensitive strain
[5]; 5 μg/ml Erythromycin (FIG. 81)
  time at which a reduction in escape velocity can be seen: 1 h
[5]; 5 μg/ml Erythromycin, time zero, 30 minutes, 3 hours post-treatment (FIG. 80)
  change of escape velocity over time: escape velocity of the Erythromycin-sensitive strain decreases

## Cc1ccc(NC(=O)c2ccc(CN3CCN(C)CC3)cc2)cc1Nc1nccc(-c2cccnc2)n1 [Gleevec, imatinib mesylate]
[6]
  escape velocity as compared to non-treated cells: significantly lower escape velocity
[7]
  Mean Distance: 13.199 μm
[7]; 0.06 to 4 μM Gleevec, 48 hours
  response of mean travel distance to varying concentration: dose-dependent response

## Cc1oncc1C(=O)Nc1ccc(C(F)(F)F)cc1 [Leflunomide]
[8]
  effect on the increase in escape velocity caused by TNF: mitigate the increase in escape velocity caused by TNF

## O=C([O-])c1ccccc1O.[Na+] [Sodium Salicylate, sodium salicylate]
[9]; 5 mM and 20 mM salicylic acid, 5 and 24 hours (FIG. 37)
  shift in escape velocities: slight but statistically significant shift in escape velocities
[9]; 5 mM sodium salicylate, 5 hours
  escape velocity, Ave.: 14.1
[9]; 5 mM sodium salicylate, 24 hours
  escape velocity, Ave.: 15.2
[9]; 5 mM sodium salicylate, 47 hours
  escape velocity, Ave.: 13.7
[9]; 20 mM sodium salicylate, 5 hours
  escape velocity, Ave.: 13.3
[9]; 20 mM sodium salicylate, 24 hours
  escape velocity, Ave.: 16.0
[9]; 20 mM, 47 hours
  cell viability (trypan blue): all cells were dead

## CN[C@@H]1C[C@H]2O[C@@](C)([C@@H]1OC)n1c3ccccc3c3c4c(c5c6ccccc6n2c5c31)C(=O)NC4 [Staurosporine]
[7]
  Mean Distance: 9.250 μm

## CC(=O)N1CCN(c2ccc(OCC3COC(Cn4ccnc4)(c4ccc(Cl)cc4Cl)O3)cc2)CC1 (stereo not drawn) [ketoconazole]
[10]
  escape velocity versus control: marked decrease in escape velocity
[11]
  mean travel distance: 20.97 μm

## CC[C@@]1(O)C(=O)OCc2c1cc1n(c2=O)Cc2cc3c(CN(C)C)c(O)ccc3nc2-1 [topotecan]
[12]; 4 μg/ml, four hours (FIG. 54)
  shift in escape velocity: larger shift in escape velocity as compared to the camptothecin-treated cells
[12]; human, 24 h, 10 μM
  cell death: virtually all of the treated U937 cells were dead
[12]; six hours, FIG. 65 versus FIG. 70
  potency by escape velocity concentration curves: higher potency of topotecan as compared to camptothecin
[13]
  decrease in escape velocity: larger decrease in escape velocity as compared to the CEM/C2 cells
[14]
  fold less sensitive than parental CCRF-CEM: 970 fold
